For 32 compounds, IC50 results are on record in patent US12209087B2, “AKT1 modulators” (Alterome Therapeutics, Inc., priority 2022, dated 2025).

Usually IC50 stands for the concentration that gives 50% inhibition.

T1 sequence (P31749 whole entry E17K): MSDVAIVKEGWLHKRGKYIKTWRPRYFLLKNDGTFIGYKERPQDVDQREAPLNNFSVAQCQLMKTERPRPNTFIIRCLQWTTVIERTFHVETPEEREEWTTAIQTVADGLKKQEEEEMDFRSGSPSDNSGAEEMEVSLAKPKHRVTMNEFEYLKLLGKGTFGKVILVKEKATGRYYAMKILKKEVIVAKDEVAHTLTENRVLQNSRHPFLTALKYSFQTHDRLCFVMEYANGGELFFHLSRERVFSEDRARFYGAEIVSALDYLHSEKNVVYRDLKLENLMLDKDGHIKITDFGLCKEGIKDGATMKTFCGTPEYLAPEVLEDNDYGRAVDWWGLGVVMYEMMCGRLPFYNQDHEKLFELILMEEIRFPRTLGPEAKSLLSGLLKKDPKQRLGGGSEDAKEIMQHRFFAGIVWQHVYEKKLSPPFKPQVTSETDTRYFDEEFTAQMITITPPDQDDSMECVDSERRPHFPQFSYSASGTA

This experiment addresses T1, full length AKT E17K (Homo sapiens, UniProt P31749, E17K).
T1 construct: host or cells: HEK-293 (ATCC CRL-1573)
Nature of the experiment: NanoBRET Target Engagement (TE) Assay. Format: cell-based. The following applies: competitive tracer displacement in living cells, read-out: AKT1 E17K IC50. The essentials:
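Compound and tracer incubated 2 h before luminescence at donor 450 nm and acceptor 600 nm, with extracellular signal inhibited. EC50 by sigmoidal variable-slope regression.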
In general terms: BRET reads energy transfer from a luciferase to a nearby fluorophore.
For `N#Cc1cccnc1C(=O)N1CCN(Cc2ccc(-n3c(-c4cccnc4N)nc4cccnc43)cc2)CC1` [Example 110, 2-(4-(4-(2-(2-Aminopyridin-3-yl)-3H-imidazo[4,5-b]pyridin-3-yl)benzyl)piperazine-1-carbonyl)nicotinonitrile], the IC50 lay in the range of 600 to 10000 nM.
The same measure for `N#Cc1ccc(C(=O)N2CCN(Cc3ccc(-n4c(-c5cccnc5N)nc5cc(-c6ccccc6)cnc54)cc3)CC2)cn1` [Example 111, 5-(4-(4-(2-(2-Aminopyridin-3-yl)-6-phenyl-3H-imidazo[4,5-b]pyridin-3-yl)benzyl)piperazine-1-carbonyl)picolinonitrile]: 600 to 10000 nM; for `N#Cc1cc(C(=O)NCc2ccc(-n3c(-c4cccnc4N)nc4cccnc43)cc2)ncn1` [Example 113, N-(4-(2-(2-Aminopyridin-3-yl)-3H-imidazo[4,5-b]pyridin-3-yl)benzyl)-6-cyanopyrimidine-4-carboxamide]: 600 to 10000 nM; for `N#Cc1cc(C(=O)N2CCN(Cc3ccc(-n4c(-c5cccnc5N)nc5cccnc54)cc3)CC2)ncn1` [Example 114, 6-(4-(4-(2-(2-Aminopyridin-3-yl)-3H-imidazo[4,5-b]pyridin-3-yl)benzyl)piperazine-1-carbonyl)pyrimidine-4-carbonitrile]: 60 to 600 nM.
Consider `N#Cc1cc(C(=O)N2CCN(Cc3ccc(-n4c(-c5cccnc5N)nc5ccc(-c6ccccc6)nc54)cc3)CC2)ncn1` [Example 116, 6-(4-(4-(2-(2-Aminopyridin-3-yl)-5-phenyl-3H-imidazo[4,5-b]pyridin-3-yl)benzyl)piperazine-1-carbonyl)pyrimidine-4-carbonitrile], for which the 50% inhibitory concentration (IC50) was under 15 nM.
For the compound `N#Cc1cc(C(=O)NC2CCN(Cc3ccc(-n4c(-c5cccnc5N)nc5ccc(-c6ccccc6)nc54)cc3)CC2)ncn1` [Example 117, N-(1-(4-(2-(2-aminopyridin-3-yl)-5-phenyl-3H-imidazo[4,5-b]pyridin-3-yl)benzyl)piperidin-4-yl)-6-cyanopyrimidine-4-carboxamide], the concentration for half-maximal inhibition (IC50) was in the range of 15 to 60 nM.
With `N#Cc1ncc(C(=O)NCc2ccc(-n3c(-c4cccnc4N)nc4cccnc43)cc2)cn1` [Example 119, N-(4-(2-(2-Aminopyridin-3-yl)-3H-imidazo[4,5-b]pyridin-3-yl)benzyl)-2-cyanopyrimidine-5-carboxamide] the figure was 600 to 10000 nM.
The same measure for `N#Cc1ccc(C(=O)NCc2ccc(-n3c(-c4cccnc4N)nc4cccnc43)cc2)cn1` [Example 121, N-(4-(2-(2-Aminopyridin-3-yl)-3H-imidazo[4,5-b]pyridin-3-yl)benzyl)-6-cyanonicotinamide]: 600 to 10000 nM; for `N#Cc1cc(C(=O)NCc2ccc(-n3c(-c4cccnc4N)nc4cccnc43)cc2)ccn1` [Example 122, N-(4-(2-(2-Aminopyridin-3-yl)-3H-imidazo[4,5-b]pyridin-3-yl)benzyl)-2-cyanoisonicotinamide]: 600 to 10000 nM; for `N#Cc1cncc(C(=O)NCc2ccc(-n3c(-c4cccnc4N)nc4cccnc43)cc2)c1` [Example 123, N-(4-(2-(2-Aminopyridin-3-yl)-3H-imidazo[4,5-b]pyridin-3-yl)benzyl)-5-cyanonicotinamide]: 600 to 10000 nM.
As to `N#Cc1ccc(C(=O)NCc2ccc(-n3c(-c4cccnc4N)nc4cccnc43)cc2)nc1` [Example 124, N-(4-(2-(2-Aminopyridin-3-yl)-3H-imidazo[4,5-b]pyridin-3-yl)benzyl)-5-cyanopicolinamide], the IC50 lay in the range of 600 to 10000 nM.
Consider `N#Cc1cc(NCc2ccc(-n3c(-c4cccnc4N)nc4cccnc43)cc2)ccn1` [Example 127, 4-((4-(2-(2-Aminopyridin-3-yl)-3H-imidazo[4,5-b]pyridin-3-yl)benzyl)amino)picolinonitrile], for which the IC50 was in the range of 600 to 10000 nM.
The same measure for `N#Cc1ccc(NCc2ccc(-n3c(-c4cccnc4N)nc4cccnc43)cc2)cn1` [Example 128, 5-((4-(2-(2-Aminopyridin-3-yl)-3H-imidazo[4,5-b]pyridin-3-yl)benzyl)amino)picolinonitrile]: 600 to 10000 nM; for `N#Cc1cccc(NCc2ccc(-n3c(-c4cccnc4N)nc4cccnc43)cc2)n1` [Example 130, 6-((4-(2-(2-Aminopyridin-3-yl)-3H-imidazo[4,5-b]pyridin-3-yl)benzyl)amino)picolinonitrile]: 600 to 10000 nM.
In the case of `N#Cc1cncc(NCc2ccc(-n3c(-c4cccnc4N)nc4cccnc43)cc2)c1` [Example 131, 5-((4-(2-(2-Aminopyridin-3-yl)-3H-imidazo[4,5-b]pyridin-3-yl)benzyl)amino)nicotinonitrile], the 50% inhibitory concentration (IC50) lay in the range of 600 to 10000 nM.
With `N#Cc1ccnc(NCc2ccc(-n3c(-c4cccnc4N)nc4cccnc43)cc2)c1` [Example 132, 2-((4-(2-(2-Aminopyridin-3-yl)-3H-imidazo[4,5-b]pyridin-3-yl)benzyl)amino)isonicotinonitrile] the figure was 600 to 10000 nM; with `N#Cc1cncc(NCc2ccc(-n3c(-c4cccnc4N)nc4cccnc43)cc2)n1` [Example 133, 6-((4-(2-(2-Aminopyridin-3-yl)-3H-imidazo[4,5-b]pyridin-3-yl)benzyl)amino)pyrazine-2-carbonitrile], 600 to 10000 nM.
With `N#Cc1ccnc(NCc2ccc(-n3c(-c4cccnc4N)nc4cccnc43)cc2)n1` [Example 134, 2-((4-(2-(2-Aminopyridin-3-yl)-3H-imidazo[4,5-b]pyridin-3-yl)benzyl)amino)pyrimidine-4-carbonitrile] the figure was 600 to 10000 nM.
As for `N#Cc1cc(NCc2ccc(-n3c(-c4cccnc4N)nc4cccnc43)cc2)ncn1` [Example 135, 6-((4-(2-(2-aminopyridin-3-yl)-3H-imidazo[4,5-b]pyridin-3-yl)benzyl)amino)pyrimidine-4-carbonitrile], the IC50 was in the range of 600 to 10000 nM.
The same measure for `N#Cc1cc(C(=O)N2CCN(Cc3ccc(-n4c(-c5cccnc5N)nc5cc(-c6ccccc6)cnc54)cc3)CC2)ccn1` [Example 137, 4-(4-(4-(2-(2-Aminopyridin-3-yl)-6-phenyl-3H-imidazo[4,5-b]pyridin-3-yl)benzyl)piperazine-1-carbonyl)picolinonitrile]: 600 to 10000 nM; for `N#Cc1cccc(C(=O)N2CCN(Cc3ccc(-n4c(-c5cccnc5N)nc5ccc(-c6ccccc6)nc54)cc3)CC2)n1` [Example 138, 6-(4-(4-(2-(2-Aminopyridin-3-yl)-5-phenyl-3H-imidazo[4,5-b]pyridin-3-yl)benzyl)piperazine-1-carbonyl)picolinonitrile]: 60 to 600 nM; for `N#Cc1cncc(C(=O)N2CCN(Cc3ccc(-n4c(-c5cccnc5N)nc5ccc(-c6ccccc6)nc54)cc3)CC2)c1` [Example 139, 5-(4-(4-(2-(2-Aminopyridin-3-yl)-5-phenyl-3H-imidazo[4,5-b]pyridin-3-yl)benzyl)piperazine-1-carbonyl)nicotinonitrile]: 600 to 10000 nM.
Turning to `N#Cc1ccnc(C(=O)N2CCN(Cc3ccc(-n4c(-c5cccnc5N)nc5ccc(-c6ccccc6)nc54)cc3)CC2)c1` [Example 140, 2-(4-(4-(2-(2-Aminopyridin-3-yl)-5-phenyl-3H-imidazo[4,5-b]pyridin-3-yl)benzyl)piperazine-1-carbonyl)isonicotinonitrile], the IC50 is 60 to 600 nM.
`N#Cc1nccc(C(=O)N2CCN(Cc3ccc(-n4c(-c5cccnc5N)nc5ccc(-c6ccccc6)nc54)cc3)CC2)n1` [Example 141, 4-(4-(4-(2-(2-Aminopyridin-3-yl)-5-phenyl-3H-imidazo[4,5-b]pyridin-3-yl)benzyl)piperazine-1-carbonyl)pyrimidine-2-carbonitrile]: the IC50 is under 15 nM.
Turning to `N#Cc1ccc(C(=O)N2CCN(Cc3ccc(-n4c(-c5cccnc5N)nc5ccc(-c6ccccc6)nc54)cc3)CC2)nc1` [Example 142, 6-(4-(4-(2-(2-Aminopyridin-3-yl)-5-phenyl-3H-imidazo[4,5-b]pyridin-3-yl)benzyl)piperazine-1-carbonyl)nicotinonitrile], the IC50 is 600 to 10000 nM.
For the compound `N#Cc1ncccc1C(=O)N1CCN(Cc2ccc(-n3c(-c4cccnc4N)nc4ccc(-c5ccccc5)nc43)cc2)CC1` [Example 143, 3-(4-(4-(2-(2-Aminopyridin-3-yl)-5-phenyl-3H-imidazo[4,5-b]pyridin-3-yl)benzyl)piperazine-1-carbonyl)picolinonitrile], the concentration for half-maximal inhibition (IC50) fell in the range of 60 to 600 nM.
As for `N#Cc1cnccc1C(=O)N1CCN(Cc2ccc(-n3c(-c4cccnc4N)nc4ccc(-c5ccccc5)nc43)cc2)CC1` [Example 144, 4-(4-(4-(2-(2-Aminopyridin-3-yl)-5-phenyl-3H-imidazo[4,5-b]pyridin-3-yl)benzyl)piperazine-1-carbonyl)nicotinonitrile], the IC50 is 600 to 10000 nM.
For `N#Cc1ccncc1C(=O)N1CCN(Cc2ccc(-n3c(-c4cccnc4N)nc4ccc(-c5ccccc5)nc43)cc2)CC1` [Example 145, 3-(4-(4-(2-(2-Aminopyridin-3-yl)-5-phenyl-3H-imidazo[4,5-b]pyridin-3-yl)benzyl)piperazine-1-carbonyl)isonicotinonitrile], the IC50 was 600 to 10000 nM.
As for `N#Cc1cccnc1C(=O)N1CCN(Cc2ccc(-n3c(-c4cccnc4N)nc4ccc(-c5ccccc5)nc43)cc2)CC1` [Example 146, 2-(4-(4-(2-(2-Aminopyridin-3-yl)-5-phenyl-3H-imidazo[4,5-b]pyridin-3-yl)benzyl)piperazine-1-carbonyl)nicotinonitrile], the IC50 fell in the range of 600 to 10000 nM.
As for `N#Cc1ccnc(C(=O)NCc2ccc(-n3c(-c4cccnc4N)nc4cccnc43)cc2)c1` [Example 147, N-(4-(2-(2-Aminopyridin-3-yl)-3H-imidazo[4,5-b]pyridin-3-yl)benzyl)-4-cyanopicolinamide], the half-inhibitory concentration (IC50) lay in the range of 600 to 10000 nM.
Turning to `N#Cc1nccc(C(=O)NCc2ccc(-n3c(-c4cccnc4N)nc4cccnc43)cc2)n1` [Example 148, N-(4-(2-(2-Aminopyridin-3-yl)-3H-imidazo[4,5-b]pyridin-3-yl)benzyl)-2-cyanopyrimidine-4-carboxamide], the IC50 fell in the range of 600 to 10000 nM.
The same measure for `N#Cc1ccnc(C(=O)N2CCN(Cc3ccc(-n4c(-c5cccnc5N)nc5cccnc54)cc3)CC2)c1` [Example 149, 2-(4-(4-(2-(2-Aminopyridin-3-yl)-3H-imidazo[4,5-b]pyridin-3-yl)benzyl)piperazine-1-carbonyl)isonicotinonitrile]: 600 to 10000 nM.
